The target in assay [1] is T1, Cysteinyl leukotriene receptor 1 (Homo sapiens, UniProt Q9Y271).
T1 sequence (Q9Y271 whole entry): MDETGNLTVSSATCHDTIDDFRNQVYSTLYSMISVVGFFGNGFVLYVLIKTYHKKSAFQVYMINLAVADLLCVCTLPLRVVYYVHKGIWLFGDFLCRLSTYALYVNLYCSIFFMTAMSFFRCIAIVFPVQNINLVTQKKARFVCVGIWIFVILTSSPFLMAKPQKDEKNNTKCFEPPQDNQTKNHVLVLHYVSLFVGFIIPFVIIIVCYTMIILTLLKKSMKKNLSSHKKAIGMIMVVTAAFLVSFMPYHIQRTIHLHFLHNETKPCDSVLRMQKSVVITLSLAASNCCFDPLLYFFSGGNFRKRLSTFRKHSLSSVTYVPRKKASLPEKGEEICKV

Assay [2] has as its target T2, Cysteinyl leukotriene receptor 2 (Homo sapiens, UniProt Q9NS75).
T2 sequence (Q9NS75 whole entry): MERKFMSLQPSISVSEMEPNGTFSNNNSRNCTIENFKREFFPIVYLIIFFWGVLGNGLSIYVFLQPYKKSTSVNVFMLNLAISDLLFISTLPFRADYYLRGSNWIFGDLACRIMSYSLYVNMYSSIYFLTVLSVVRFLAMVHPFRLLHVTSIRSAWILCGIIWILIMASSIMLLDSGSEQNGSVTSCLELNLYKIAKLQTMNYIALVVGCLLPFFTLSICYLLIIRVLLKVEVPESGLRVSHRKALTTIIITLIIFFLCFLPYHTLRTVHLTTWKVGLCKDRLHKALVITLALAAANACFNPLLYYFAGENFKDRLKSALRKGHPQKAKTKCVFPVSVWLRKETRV

For orientation: Ki means the dissociation constant of the complex between target and ligand, obtained from inhibition or displacement. A lower Ki goes with a stronger hold on the target.

As for `CN(C)C(=O)CCSC(SCCC(=O)O)c1cccc(/C=C/c2ccc3ccc(Cl)cc3n2)c1` (stereo not drawn) [3-(((3-(2-(7-chloroquinoline-2-yl)ethenyl)phenyl)((3-dimethylamino-3-oxopropyl)thio)methyl)thio)propanoic acid], the Ki in assay [1] was 10.4 nM; in assay [2], 1000 nM.

`CCCCC/C=C\C/C=C/C=C/C=C/[C@@H](Sc1ccc(C(=O)O)cc1)[C@@H](O)CCCC(=O)O` [CAS_134733-55-4] had a Ki in assay [2] of 300 nM.

Values taken from BindingDB's records for doi:10.1124/mol.58.6.1601 (University of California Irvine, 2000).
